Results from patent US9540325B2, “N1-cyclic amine-N5-substituted phenyl biguanide derivatives, methods of preparing the same and pharmaceutical composition comprising the same” (Immunomet Therapeutics, Inc., priority 2011, dated 2017).

How the values were obtained:
Snail = assay: EMT inhibitory effect by inhibition of Snail expression (immunoblotting) in MCF7 cells; assay type: cell-based, human; conditions: MCF7, 48 hours, untreated control = 100%
Experimental: Cells undergoing EMT owing to various cytokines and growth factors can acquire motility and thus move a distance to form tumors in new tissues. Therefore, the metastasis of cancer cells can be inhibited by controlling expression of EMT-related transcription factors to hinder EMT. Based on these facts, the activities of biguanide derivatives that inhibit Snail expression, which is a transcription factor inducing EMT in the MCF7 cell line derived from human breast cancer, were measured and simple experimental methods are described, as follows.
MCF7 cells derived from human breast cancer (commercially available from Korean Cell Line Bank) were cultured in a DMEM medium supplemented with 10% (v/v) fetal bovine serum (commercially available from Gibco Life Technologies (US)), put into a 6-well plate so that the number of cultured cells could amount to approximately 5×10^5 cells per well, and then incubated in an incubator supplied with 5% CO2 (culture temperature: 37° C., pH: 7.0 to 7.4). The culture media were treated with phenformin hydrochloride and the compounds synthesized in the examples at contents of 1 μM and 10 μM, respectively, and then incubated for 48 hours. Metformin hydrochloride was used as the control, and the cells were treated with 1 mM and 10 mM metformin hydrochloride. After 48 hours, the cells were lysed in a cell lysis buffer containing 10 mM Tris HCl (pH7.4), 100 mM NaCl, 1 mM EDTA, 1 mM EGTA, 1 mM NaF, 20 mM Na4P2O7, 2 mM Na3VO4, 1% TritonX-100, 10% glycerol, 0.5% deoxycholate and 1 mM PMSF. Then, 25 μg of the cell lysate was electrophoresized in an SDS-PAGE gel, and then transferred to a […] membrane (commercially available from Amersham Life Science). The membrane reacted with rat monoclonal anti-human Snail (commercially available from Cell signaling Technology) or mouse monoclonal anti-β-actin (commercially available from Santa cruz Biotechnology), and unbound antibodies were removed. In this case, anti-β-actin was used as the antibody to ensure that the amount of proteins loaded into the SDS-PAGE gel is identical. The membrane was reacted again with a secondary antibody, anti-rat IgG (commercially available from Cell signaling Technology) or anti-mouse IgG (commercially available from Santa Cruz Biotechnology). Finally, the antibody bound to the membrane was detected using an ECL Plus system (commercially available from Amersham Life Science). Also, the expression level of Snail with respect to β-actin was analyzed using a Scion image analysis program. Here, when it was assumed that the expression level of the untreated control was 100%, the expression level of the Snail by treatment with the compounds synthesized in the examples was indicated as a percentage (%).

[1] = Solubility in water of hydrochloride and acetate salts; assay type: physicochemical; conditions: content 5 mg/1 ml distilled water, room temperature
Experimental: The solubilities in water of the hydrochlorides prepared in Examples 26, 27, 32, 33, 48, 49, 53 and 54, and the solubilities in water of the acetates prepared in Examples 70 to 77, were compared.
The experimental conditions and methods are described, as follows.
1) 1 ml of distilled water is added to a container including 5 mg of salt at room temperature.
2) The resulting mixture is stirred for 10 minutes, and then kept at room temperature for 1 hour.
3) Undissolved residual salt is recovered and weighed.
4) The ratio of the amount of the recovered salt and the amount of the dissolved salt is calculated.
5) Operations 1) to 4) are repeatedly performed with increasing amount (i.e., 10, 15, 20, 25 and 30 mg) of salt.
The experimental procedures were performed for each of the hydrochlorides of Examples 26, 27, 32, 33, 48, 49, 53 and 54 and the acetates of Examples 70 to 77. The comparative solubilities obtained using the hydrochlorides of Examples 26, 27, 32, 33, 48, 49, 53 and 54 and the acetates of Examples 70 to 77 are listed in the following Table 1.

Cl.N=C(NC(=N)N1CCCCC1)Nc1cccc(Cl)c1 [Example 20, N1-piperidine-N5-(3-chloro)phenyl biguanide hydrochloride]
Snail Expression Rate (%) (Snail; 1 μM): 57.6%
Snail Expression Rate (%) (Snail; 10 μM): 8.7%
melting point: 172 to 174 °C

Cl.N=C(NC(=N)N1CCCCCC1)Nc1cccc(Cl)c1 [Example 21, N1-azepane-N5-(3-chloro)phenyl biguanide hydrochloride]
Snail Expression Rate (%) (Snail; 1 μM): 83.5%
Snail Expression Rate (%) (Snail; 10 μM): 29.8%
melting point: 213 to 215 °C

Cl.N=C(NC(=N)N1CCCC1)Nc1ccc(C(F)(F)F)cc1 [Example 26, N1-pyrrolidine-N5-(4-trifluoromethyl)phenyl biguanide hydrochloride]
Solubility in water (%), hydrochloride salt [1]: 80%
Snail Expression Rate (%) (Snail; 1 μM): 57.2%
Snail Expression Rate (%) (Snail; 10 μM): 14.6%
melting point: 283 to 284 °C

Cl.N=C(NC(=N)N1CCCCC1)Nc1ccc(C(F)(F)F)cc1 [Example 27, N1-piperidine-N5-(4-trifluoromethyl)phenyl biguanide hydrochloride]
Solubility in water (%), hydrochloride salt [1]: 20%
Snail Expression Rate (%) (Snail; 1 μM): 52.7%
Snail Expression Rate (%) (Snail; 10 μM): 13.2%
melting point: 273 to 274 °C
